Tested on: AKT signaling pathway
Experiment: Western blotting of p-AKT and t-AKT in primary cortical neuron cells
Format: cell-based, mouse
Conditions: 500 nM, 10 min at 37° C., Vehicle = 100, n = 3
Description: N171-82Q WT male mice were mated with female B6C3F1/J hybrid mice. B6C3F1/J mice 18 days after pregnancy were anesthetized with isoflurane and dissected to remove embryos, which were then placed in a 10 cm Petri dish containing Leibovitz's buffer. The head of the embryo was cut off, and the brain was peeled off to obtain the whole mouse brain, which was then placed in a new 10 cm Petri dish containing Leibovitz's buffer. The neurocortex of the brain was separated and placed in a 15 mL centrifuge tube containing 3 mL Leibovitz's buffer. The centrifuge tube was centrifuged at 1000 rpm for 1 minute, and the Leibovitz's buffer was gently removed from the centrifuge tube, and then 750 μL of 0.25% trypsin-EDTA and 75 μL of 0.1% DNase (2000 U/mL) were added to digest at 37° C. for 15 min. 750 μL of DMEM medium containing 5% FBS was added to stop the digestion. The cells were mixed well, and centrifuged at 1000 rpm for 5 minutes. Trypins/DNase mixture was removed, and 750 μL of Neurobasal medium (B-27, Glutamax, P/S) was added. The cells were mixed by gently pipetting with a pipette for 30 times. The cell suspension was filtered with a 40 µm filter and transferred to another new 50 mL centrifuge tube. 10 μL of the cell suspension was added to 90 μL of DMEM (diluted 10 times), and 10 μL of the liquid mixture was placed on a hemocytometer so that the suspension filled between the cover slip and the counting plate for counting. The cells in the four large grids of the plate were counted, wherein for the cells across the line, only the cells on the left and upper side lines were counted. The following formulas were used:
Number of cells/mL=total number of cells in the four large grids/4×10^4/mL
Total number of cells/mL=total number of cells in the four large grids/4×10^4/mL×dilution factor.
After counting, the cells were diluted with Neurobasal selection medium so that 1 mL of Neurobasal culture medium contained 0.5×10^6 cells.
200 μL of PDL solution previously heated in a 37° C. water bath was added to each well of a 6-well plate, and incubated at 37° C. overnight to allow PDL to evenly coat the well plate. The PDL solution was absorbed and the plate was washed twice with PBS. Before use, the PBS remaining on the plate was absorbed and the cover was opened to dry the plate in a super clean bench. 2 mL of cell suspension was added to each well (37° C., 5% CO2), and the cells were cultured until adherence. The culture medium was replaced and the culture continued for 3 days, and then the growth status of neurons was observed. Every other 3 days, half of the medium was removed and replaced with fresh complete medium. The culture continued until the primary cortical neuron cells mature (usually mature on the 14th day of culture).
After the primary cortical neuron cells have matured, appropriate amount of freshly prepared culture medium was added until final volume in each well was 2 mL. The experiment included a blank control group (Vehicle), a positive control group BDNF (10 ng/mL), a control compound group (500 nM), and 6 test compound groups (500 nM). Three repeats were set for each dose. After incubating at 37° C. for 10 min, the culture solution was discarded and the cells were washed with pre-chilled PBS, and then 40 μL of pre-chilled lysate (RIPA buffer 10 mL and protease and phosphatase inhibitor 100 μL) was added to each well for lysis on ice for 30 min. After lysis, the cell was crushed by ultrasonic cell crusher, centrifuged at 14000 rpm for 20 min at 4° C. The supernatant was transferred to a new 1.5 mL centrifuge tube to extract protein. Western blotting experiments were used to detect the protein levels of (A) p-TrkB and t-TrkB; (B) p-AKT and t-AKT.
The software Sigmaplot 13.0 was used for statistical analysis of the data, and the data of each group was expressed as mean±standard error (x±SEM). […]

| SMILES | Relative intensity of p-AKT/t-AKT protein |
| --- | --- |
| O=c1cc(-c2ccc(N3CCCCC3)cc2)oc2c(O)c(O)ccc12 [Example 1, 7,8-dihydroxy-2-(4-(piperidin-1-yl)phenyl)-4H-chromen-4-one] | 219.663 ± 8.085 |
| COc1ccc2c(=O)cc(-c3ccc(N4CCCCC4)cc3)oc2c1OC [Example 2, 7,8-dimethoxy-2-(4-(piperidin-1-yl)phenyl)-4H-chromen-4-one] | 209.651 ± 3.294 |
| CN(C)C1CCN(c2ccc(-c3cc(=O)c4ccc(O)c(O)c4o3)cc2)CC1 [Example 3, 2-(4-(4-(dimethylamino)piperidin-1-yl)phenyl)-7,8-dihydroxy-4H-chromen-4-one] | 240.213 ± 8.376 |
| CC1(C)CCN(c2ccc(-c3cc(=O)c4ccc(O)c(O)c4o3)cc2)CC1 [Example 4, 2-(4-(4,4-dimethylpiperidin-1-yl)phenyl)-7,8-dihydroxy-4H-chromen-4-one] | 215.698 ± 5.487 |
| CC1CC(C)CN(c2ccc(-c3cc(=O)c4ccc(O)c(O)c4o3)cc2)C1 (stereo not shown) [Example 5, 2-(4-(3,5-dimethylpiperidin-1-yl)phenyl)-7,8-dihydroxy-4H-chromen-4-one] | 219.904 ± 6.954 |

Tested on: N171-82Q HD mice
Experiment: DARPP32 protein level in striatum by Western blotting, HD mice
Format: in vivo, mouse
Conditions: 5 mg/kg/d until 25 weeks, WT Vehicle = 100, n = 3
Description: 7-week-old N171-82Q HD male mice were paired with female B6C3F1/J hybrid mice to obtain newborn mice. From 21 days of age, male mice were housed in separate cages. 0.5 cm of mouse tail tissue was removed to extract DNA to determine the genotype of the mouse, such that N171-82Q HD mice and WT mice needed for the experiment were obtained. The mice were randomly divided into WT Vehicle group (normal mice), WT test compound group (administration group of normal mice, 5 mg/kg/d, n=10), HD Vehicle group (blank group of HD mice, n=15), HD test compound group (administration groups 1-5 of HD mice, 5 mg/kg/d, n=10). The test compound was suspended in 1% CMC-Na solution and administered by intragastric administration until the end of the study. The weights of the mice were measured every week. Behavioral tests were performed at 12 weeks, 18 weeks, and 24 weeks of age to investigate motor function. At 20 weeks, 3 samples of tissue from each group were used for western blotting and immunohistochemistry. At 24 weeks, MRI scans were performed. At the end of the study, the effect of the test compound on the mortality of mice was evaluated.
Dopamine and cAMP-regulated phosphoprotein (DARPP-32), with a molecular weight of 32 kDa, is a basic component of dopamine signaling cascade. A pathological feature of HD is the massive loss of MSNs which can express high level of DARPP32, in the striatum. Therefore, DARPP32 can be used as a marker of nerve damage and nerve dysfunction in the HD model. After the behavioral evaluation of the mice in each experimental group was completed and the administration continued until 25 weeks, 3 mice were taken from each group to separate hippocampal tissue, striatum, and neurocortex tissue. The total protein in the striatum tissue was extracted, and the protein level of DARPP 32 was detected by Western blotting experiment.
The striatum tissue block was lysed in 100 μL of lysis buffer (RIPA buffer 10 mL, protease inhibitor 100 μL, phosphatase inhibitor 100 μL) on ice for 30 min, and then pulverized with an ultrasonic cell pulverizer, and then centrifuged at 14000 rpm for 20 min at 4° C. The supernatant was transferred to a new 1.5 mL centrifuge tube. The protein was extracted, and the protein level of DARPP 32 was detected by Western blotting.

| SMILES | Relative intensity of DARPP32 protein |
| --- | --- |
| O=c1cc(-c2ccc(N3CCCCC3)cc2)oc2c(O)c(O)ccc12 [Example 1, 7,8-dihydroxy-2-(4-(piperidin-1-yl)phenyl)-4H-chromen-4-one] | 96.971 ± 3.607 |
| COc1ccc2c(=O)cc(-c3ccc(N4CCCCC4)cc3)oc2c1OC [Example 2, 7,8-dimethoxy-2-(4-(piperidin-1-yl)phenyl)-4H-chromen-4-one] | 96.113 ± 2.681 |
| CN(C)C1CCN(c2ccc(-c3cc(=O)c4ccc(O)c(O)c4o3)cc2)CC1 [Example 3, 2-(4-(4-(dimethylamino)piperidin-1-yl)phenyl)-7,8-dihydroxy-4H-chromen-4-one] | 97.032 ± 3.887 |
| CC1(C)CCN(c2ccc(-c3cc(=O)c4ccc(O)c(O)c4o3)cc2)CC1 [Example 4, 2-(4-(4,4-dimethylpiperidin-1-yl)phenyl)-7,8-dihydroxy-4H-chromen-4-one] | 97.348 ± 3.438 |
| CC1CC(C)CN(c2ccc(-c3cc(=O)c4ccc(O)c(O)c4o3)cc2)C1 (stereo not shown) [Example 5, 2-(4-(3,5-dimethylpiperidin-1-yl)phenyl)-7,8-dihydroxy-4H-chromen-4-one] | 96.797 ± 3.018 |

Source: patent US20200390755A1, “COMPOUND FOR TREATING NERVOUS SYSTEM DISEASES AND USE THEREOF” (SHAANXI MICOT TECHNOLOGY CO., LTD., priority 2018, published 2020)
